The assay deals with T1, recombinant autotaxin (Homo sapiens, UniProt Q13822).
T1 construct: made in house; host or cells: Hi5 insect cells (baculovirus)
Nature of the assay: Autotaxin test (enzyme test), Amplex Red fluorescence with LPC substrate. The assay is classed as biochemical. The note with it: autotaxin inhibition (enzyme test); for remaining activity at 10 µM: 10 μM compound, read-out: % Control at 10 μM. A digest of the protocol:
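Activity was inferred from H2O2 made from released choline, detected as Amplex Red/peroxidase fluorescence (485 nm excitation, 612 nm emission, kinetic read). Beforehand, Hi5-expressed autotaxin sat with compound 30 min at 22° C, then hydrolysed 75 μM final LPC for 90 min at 37° C, pH 8 Tris buffer.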

From US20120115852A1, “HETEROCYCLIC COMPOUNDS AS AUTOTAXIN INHIBITORS” (Merck Patent Gesellschaft Mit Beschrankter Haftung, priority 2009, published 2012) come the findings set out here.

In general, IC50 refers to the point on the concentration scale where inhibition reaches its midpoint.

Bounds are passed on as bounds.

As to `O=C1Nc2ccc(-c3ccc(Cl)cc3F)cc2C(=O)N2CCN(C(=O)[C@H]3NCC[C@@H]3O)CC12` (stereo partly drawn) [Compound A69, 7-(4-Chloro-2-fluorophenyl)-2-((2S,3S)-3-hydroxy-pyrrolidine-2-carbonyl)-1,3,4,11a-tetrahydro-2H,10H-2,4a,10-triazadibenzo[a,d]cycloheptene-5,11-dione], the remaining activity at 10 µM is 58%.

As for `O=C1Nc2ccc(-c3ccc(Cl)cc3F)cc2C(=O)N2CCN(C(=O)[C@@H]3C[C@@H](O)CN3)CC12` (stereo partly drawn) [Compound A70, 7-(4-Chloro-2-fluorophenyl)-2-((2S,4R)-4-hydroxy-pyrrolidine-2-carbonyl)-1,3,4,11a-tetrahydro-2H,10H-2,4a,10-triazadibenzo[a,d]cycloheptene-5,11-dione], the remaining activity at 10 µM turned out to be 28% and the concentration for half-maximal inhibition (IC50) is over 1000 nM.

`O=C1Nc2ccc(-c3ccc(Cl)cc3)cc2C(=O)N2CCN(C(=O)C3CSC(c4ccncc4)N3)CC12` (centres unmarked) [Compound A71, 7-(4-Chlorophenyl)-2-(2-pyridin-4-ylthiazolidine-4-carbonyl)-1,3,4,11a-tetrahydro-2H,10H-2,4a,10-triazadibenzo[a,d]cycloheptene-5,11-dione]: the remaining activity at 10 µM is 7% and the IC50 is over 1000 nM.

Regarding `O=C1Nc2ccc(-c3ccc(Cl)cc3)cc2C(=O)N2CCN(C(=O)c3c(C(F)(F)F)nc4ccccn34)CC12` (centres unmarked) [Compound A72, 7-(4-Chlorophenyl)-2-(2-trifluoromethylimidazo[1,2-a]pyridine-3-carbonyl)-1,3,4,11a-tetrahydro-2H,10H-2,4a,10-triazadibenzo[a,d]cycloheptene-5,11-dione], the remaining activity at 10 µM came out at 70% and the IC50 is over 1000 nM.

Take `Cc1nc(C)c(C(=O)N2CCN3C(=O)c4cc(-c5ccc(Cl)cc5)ccc4NC(=O)C3C2)s1` (centres unmarked) [Compound A73, 7-(4-Chlorophenyl)-2-(2,4-dimethylthiazole-5-carbonyl)-1,3,4,11a-tetrahydro-2H,10H-2,4a,10-triazadibenzo[a,d]cycloheptene-5,11-dione]: the remaining activity at 10 µM is 78%.

Regarding `CC(C)[C@H](O)C(=O)N1CCN2C(=O)c3cc(-c4ccc(Cl)cc4)ccc3NC(=O)C2C1` (stereo partly drawn) [Compound A74, 7-(4-Chlorophenyl)-2-((S)-2-hydroxy-3-methyl-butyryl)-1,3,4,11a-tetrahydro-2H,10H-2,4a,10-triaza-dibenzo[a,d]cycloheptene-5,11-dione], the remaining activity at 10 µM is -2% and the IC50 is over 1000 nM.

On to `O=C1Nc2ccc(-c3ccc(Cl)cc3)cc2C(=O)N2CCN(C(=O)c3cnc[nH]3)CC12` (centres unmarked) [Compound A75, 7-(4-Chlorophenyl)-2-(3H-imidazole-4-carbonyl)-1,3,4,11a-tetrahydro-2H,10H-2,4a,10-triaza-dibenzo[a,d]cycloheptene-5,11-dione], for which the remaining activity at 10 µM is 55%.

As for `O=C1Nc2ccc(-c3ccc(Cl)cc3)cc2C(=O)N2CCN(C(=O)c3csc(-c4cccnc4)n3)CC12` (centres unmarked) [Compound A76, 7-(4-Chlorophenyl)-2-(2-pyridin-3-ylthiazole-4-carbonyl)-1,3,4,11a-tetrahydro-2H,10H-2,4a,10-triazadibenzo[a,d]cycloheptene-5,11-dione], the remaining activity at 10 µM stood at 41% and the 50% inhibitory concentration (IC50) is over 1000 nM.

For the molecule `CC(C)[C@@H](O)C(=O)N1CCN2C(=O)c3cc(-c4ccc(Cl)cc4F)ccc3NC(=O)C2C1` (stereo partly drawn) [Compound A77, 7-(4-Chloro-2-fluorophenyl)-2-((R)-2-hydroxy-3-methylbutyryl)-1,3,4,11a-tetrahydro-2H,10H-2,4a,10-triazadibenzo[a,d]cycloheptene-5,11-dione], the remaining activity at 10 µM was found to be 11% and the IC50 was over 1000 nM.

On to `CC(C)(C)CC(=O)N1CCN2C(=O)c3cc(-c4ccc(Cl)cc4Cl)ccc3NC(=O)C2C1` (centres unmarked) [Compound A78, 7-(2,4-Dichlorophenyl)-2-(3,3-dimethylbutyryl)-1,3,4,11a-tetrahydro-2H,10H-2,4a,10-triaza-dibenzo[a,d]cycloheptene-5,11-dione], for which the remaining activity at 10 µM was determined as 16% and the IC50 is over 1000 nM.

Turning to `CC(C)(C)CC(=O)N1CCN2C(=O)c3cc(-c4cc(F)c(Cl)c(F)c4)ccc3NC(=O)C2C1` (centres unmarked) [Compound A79, 7-(4-Chloro-3,5-difluorophenyl)-2-(3,3-dimethyl-butyryl)-1,3,4,11a-tetrahydro-2H,10H-2,4a,10-triazadibenzo[a,d]cycloheptene-5,11-dione], the remaining activity at 10 µM was -14% and the concentration for half-maximal inhibition (IC50) was 100 to 1000 nM.

On to `CC(C)(C)[C@H](N)C(=O)N1CCN2C(=O)c3cc(-c4ccc(Cl)cc4)ccc3NC(=O)[C@@H]2C1` [Compound A80, (S)-2-((S)-2-Amino-3,3-dimethylbutyryl)-7-(4-chloro-phenyl)-1,3,4,11a-tetrahydro-2H,10H-2,4a,10-triaza-dibenzo[a,d]cycloheptene-5,11-dione], for which the remaining activity at 10 µM came to 44%.

As to `O=C1Nc2ccc(-c3ccc(Cl)cc3)cc2C(=O)N2CCN(C(=O)[C@@H]3CCCN3C3CCNCC3)C[C@@H]12` [Compound A81, (S)-7-(4-Chlorophenyl)-2-((S)-1-piperidin-4-yl-pyrrolidine-2-carbonyl)-1,3,4,11a-tetrahydro-2H,10H-2,4a,10-triazadibenzo[a,d]cycloheptene-5,11-dione], the remaining activity at 10 µM amounted to 33%.

Regarding `Cc1ccc(-c2ccc3c(c2)C(=O)N2CCN(C(=O)CC(C)(C)C)CC2C(=O)N3)c(F)c1F` (centres unmarked) [Compound A82, 7-(2,3-Difluoro-4-methylphenyl)-2-(3,3-dimethyl-butyryl)-1,3,4,11a-tetrahydro-2H,10H-2,4a,10-triazadibenzo[a,d]cycloheptene-5,11-dione], the remaining activity at 10 µM is -16% and the IC50 was in the range of 100 to 1000 nM.

As for `CC(C)(C)CC(=O)N1CCN2C(=O)c3cc(-c4cc(C(F)(F)F)ccc4F)ccc3NC(=O)C2C1` (centres unmarked) [Compound A83, 2-(3,3-Dimethylbutyryl)-7-(2-fluoro-5-trifluoromethyl-phenyl)-1,3,4,11a-tetrahydro-2H,10H-2,4a,10-triazadibenzo[a,d]cycloheptene-5,11-dione], the remaining activity at 10 µM is 81%.

As for `CC(C)(C)CC(=O)N1CCN2C(=O)c3cc(-c4ccc(C(F)(F)F)cc4F)ccc3NC(=O)C2C1` (centres unmarked) [Compound A84, 2-(3,3-Dimethylbutyryl)-7-(2-fluoro-4-trifluoromethyl-phenyl)-1,3,4,11a-tetrahydro-2H,10H-2,4a,10-triazadibenzo[a,d]cycloheptene-5,11-dione], the remaining activity at 10 µM came out at 29%.

Turning to `CC(C)(C)CC(=O)N1CCN2C(=O)c3cc(-c4cc(Cl)ccc4F)ccc3NC(=O)C2C1` (centres unmarked) [Compound A85, 7-(5-Chloro-2-fluorophenyl)-2-(3,3-dimethylbutyryl)-1,3,4,11a-tetrahydro-2H,10H-2,4a,10-triaza-dibenzo[a,d]cycloheptene-5,11-dione], the remaining activity at 10 µM is 13% and the IC50 is over 1000 nM.

Consider `Cc1ccc(-c2ccc3c(c2)C(=O)N2CCN(C(=O)CC(C)(C)C)CC2C(=O)N3)c(C)c1` (centres unmarked) [Compound A86, 2-(3,3-Dimethylbutyryl)-7-(2,4-dimethylphenyl)-1,3,4,11a-tetrahydro-2H,10H-2,4a,10-triaza-dibenzo[a,d]cycloheptene-5,11-dione], for which the remaining activity at 10 µM was 78%.

With `CC(C)(C)CC(=O)N1CCN2C(=O)c3cc(-c4cccc(C(F)(F)F)c4)ccc3NC(=O)C2C1` (centres unmarked) [Compound A87, 2-(3,3-Dimethylbutyryl)-7-(3-trifluoromethylphenyl)-1,3,4,11a-tetrahydro-2H,10H-2,4a,10-triaza-dibenzo[a,d]cycloheptene-5,11-dione], the remaining activity at 10 µM amounted to 74% and the half-maximal inhibitory concentration (IC50) is over 1000 nM.

For the molecule `CC(C)(C)CC(=O)N1CCN2C(=O)c3cc(-c4cccc(F)c4F)ccc3NC(=O)C2C1` (centres unmarked) [Compound A88, 7-(2,3-Difluorophenyl)-2-(3,3-dimethylbutyryl)-1,3,4,11a-tetrahydro-2H,10H-2,4a,10-triaza-dibenzo[a,d]cycloheptene-5,11-dione], the remaining activity at 10 µM was -6% and the IC50 is over 1000 nM.

For the molecule `CC(C)(C)CC(=O)N1CCN2C(=O)c3cc(-c4cc(F)ccc4F)ccc3NC(=O)C2C1` (centres unmarked) [Compound A89, 7-(2,5-Difluorophenyl)-2-(3,3-dimethylbutyryl)-1,3,4,11a-tetrahydro-2H,10H-2,4a,10-triaza-dibenzo[a,d]cycloheptene-5,11-dione], the remaining activity at 10 µM came out at 4% and the IC50 is over 1000 nM.

`Cc1ccc(-c2ccc3c(c2)C(=O)N2CCN(C(=O)CC(C)(C)C)CC2C(=O)N3)cc1C` (centres unmarked) [Compound A90, 2-(3,3-Dimethylbutyryl)-7-(3,4-dimethylphenyl)-1,3,4,11a-tetrahydro-2H,10H-2,4a,10-triaza-dibenzo[a,d]cycloheptene-5,11-dione]: the remaining activity at 10 µM was found to be 24% and the IC50 was over 1000 nM.

As for `CC(C)(C)CC(=O)N1CCN2C(=O)c3cc(-c4ccc(F)cc4F)ccc3NC(=O)C2C1` (centres unmarked) [Compound A91, 7-(2,4-Difluorophenyl)-2-(3,3-dimethylbutyryl)-1,3,4,11a-tetrahydro-2H,10H-2,4a,10-triaza-dibenzo[a,d]cycloheptene-5,11-dione], the remaining activity at 10 µM is -6% and the IC50 was over 1000 nM.

With `CC(C)(C)CC(=O)N1CCN2C(=O)c3cc(-c4cc(F)c(F)cc4F)ccc3NC(=O)C2C1` (centres unmarked) [Compound A92, 2-(3,3-Dimethylbutyryl)-7-(2,4,5-trifluorophenyl)-1,3,4,11a-tetrahydro-2H,10H-2,4a,10-triaza-dibenzo[a,d]cycloheptene-5,11-dione], the remaining activity at 10 µM worked out at 1% and the concentration for half-maximal inhibition (IC50) was over 1000 nM.

In the case of `O=C1Nc2ccc(-c3ccc(Cl)cc3F)cc2C(=O)N2CCN(C(=O)[C@H]3CCCN3C3CCNCC3)CC12` (stereo partly drawn) [Compound A93, 7-(4-Chloro-2-fluorophenyl)-2-((R)-1-piperidin-4-ylpyrrolidine-2-carbonyl)-1,3,4,11a-tetrahydro-2H,10H-2,4a,10-triazadibenzo[a,d]cycloheptene-5,11-dione], the remaining activity at 10 µM came out at 17%.
